The source of these data is patent US10857230B2, “Co-therapy comprising a small molecule CSF-1R inhibitor and an agonistic antibody that specifically binds CD40 for the treatment of cancer” (Janssen Biotech, Inc., priority 2017, dated 2020).

Several values for one entry are separate records, joined by “and”; a condition that tells them apart may be missing. Equal values may be shown once.

For the assay, the system named is CT26 murine colon carcinoma cells. Nature of the assay: CT26 Tumor Size Assay (Example 2). It counts as in vivo, BALB/c mice. Particulars: for Median TTE: 39-day study. On the procedure: The animals were fed ad libitum water (reverse osmosis, 1 ppm CI) and NIH 31 Modified and Irradiated Lab Diet® consisting of 18.0% crude protein, 5.0% crude fat, and 5.0% crude fiber. The mice were housed on irradiated Enrich-o'Cobs™ bedding in static microisolators on a 12-hour light cycle at 20-22° C. (68-72° F.) and 40-60% humidity.
CT26 murine colon carcinoma cells were grown in RPMI-1640 medium containing 10% fetal bovine serum, 2 mM glutamine, 100 units/mL penicillin G sodium, 100 μg/mL streptomycin sulfate, and 25 μg/mL gentamicin. The cells were cultured in tissue culture flasks in a humidified incubator at 37° C., in an atmosphere of 5% CO2 and 95% air.
The CT26 colon cells used for implantation were harvested during log phase growth and re-suspended in cold PBS. Each mouse was injected subcutaneously in the right flank with 3×10^5 tumor cells (0.1 mL cell suspension) and tumors were monitored as their volumes approached the target range of 75 to 125 mm3. Fourteen days after tumor implantation, on Day 1 of the study, animals with individual tumor volumes ranging from 75 to 125 mm^3 were sorted into fourteen groups (n=10) with group mean tumor volumes of 118-119 mm3. Tumors were measured with calipers twice weekly in two dimensions.
where w=width and l=length, in mm, of a tumor. Tumor weight was estimated with the assumption that 1 mg is equivalent to 1 mm3 of tumor volume.
The compound of formula (I), rat IgG2a (Clone 2A3) (5.55 mg/mL), anti-mCD40 (Clone FGK45) (5.46 mg/mL, purchased from BioXCell, anti-mouse CD40, Clone: FGK45, SKU: 13E0016-2, Lot No. 4699/0614B), and anti-CSF1R (5.41 mg/mL, purchased from BioXCell anti-mouse CSF1R (CD115), Clone: AFS98, SKU: BE0213, Lot No. 5248/0814) were used as test compounds, alone and in combination. The compound of formula (I) was stored at room temperature and antibody stock solutions were stored at 4° C. upon receipt.
Each week of dosing, the compound of formula (I) was dissolved in 0.5% HPMC to yield a 1.0 mg/mL dosing solution. The dosing solution was stored at 4° C., protected from light. The rat IgG2a isotype and anti-CSF1R dosing solutions were prepared fresh each day by diluting aliquots of the stock solutions with PBS to yield 1.0 mg/mL dosing solutions. The dosing solutions were stored at 4° C., protected from light. The anti-mCD40 dosing solution was prepared fresh each day by diluting an aliquot of the stock solution with PBS to yield a 0.5 mg/mL dosing solution. The dosing solution was stored at 4° C., protected from light.
On Day 1 of the study, fourteen groups of BALB/c mice (n=10) began dosing according to the following protocol.
The vehicle (0.5% HPMC) and the compound of formula (I) were administered orally (p.o.). The rat IgG2a isotype control, anti-mCD40, and anti-CSF1R were administered intraperitoneally (i.p.). Rat IgG2a(2A3), the compound of formula (I) and the anti-CSF1R were administered at 10 mg/kg. The anti-mCD40 was administered at 5 mg/kg. The dosing volume for all animals was 10 mL/kg (0.2 mL per 20-g mouse) and was adjusted for body weight.
Tumors were measured using calipers twice per week. The study endpoint was originally defined as a mean tumor volume of 1500 mm^3 in the control group or 60 days, whichever came first. Day 15 was chosen for TGI analysis. The MTV (n), the median tumor volume for the number of animals, n, on Day 15, was determined for each group. Percent tumor growth inhibition (% TGI) was defined as the difference between the MTV of the designated control group (Group 1) and the MTV of the drug-treated group, expressed as a percentage of the MTV of the control group: […]
The data set for TGI analysis includes all animals in a group, except those that die due to treatment-related (TR) or non-treatment-related (NTR) causes.
Animals were monitored individually for tumor growth until Day 39. The study protocol specified a tumor growth delay assay based on the median time-to-endpoint (TTE) in a treated group versus the control group. […]

Setting [1] is: Groups 3-7: all dosing from Day 1 (antibodies i.p. Days 1, 5, 9, formula (I) p.o. bid×14), formula (I) and anti-CSF1R 10 mg/kg, anti-mCD40 5 mg/kg, vs rat IgG2a control Group 1.
Setting [2] is: Groups 9, 11, 13, 14: formula (I) 10 mg/kg p.o. bid×14 beginning Day 4 or anti-CSF1R 10 mg/kg i.p. Days 4, 8, 12, in combinations anti-mCD40 5 mg/kg i.p. Days 1, 5, 9, vs rat IgG2a control Group 1.

As for `CC1(C)CC=C(c2nc(C3CC(C)(C)OC(C)(C)C3)ccc2NC(=O)c2nc(C#N)c[nH]2)CC1` [compound of formula (I), 4-cyano-N-(2-(4,4-dimethylcyclohex-1-en-1-yl)-6-(2,2,6,6-tetramethyltetrahydro-2H-pyran-4-yl)pyridin-3-yl)-1H-imidazole-2-carboxamide], the “MTV (n) Day 15” value is 1913 mm^3 (Day 15, Groups 3-7: all dosing from Day 1 (antibodies i.p. Days 1, 5, 9, formula (I) p.o. bid×14), formula (I) and anti-CSF1R 10 mg/kg, anti-mCD40 5 mg/kg); 1545 mm^3 and 1545 (8) mm^3 (Day 15, Groups 9, 11, 13, 14: formula (I) 10 mg/kg p.o. bid×14 beginning Day 4 or anti-CSF1R 10 mg/kg i.p. Days 4, 8, 12, in combinations anti-mCD40 5 mg/kg i.p. Days 1, 5, 9). In addition, the “% TGI” value (Day 15, vs rat IgG2a control Group 1, Groups 3-7: all dosing from Day 1 (antibodies i.p. Days 1, 5, 9, formula (I) p.o. bid×14), formula (I) and anti-CSF1R 10 mg/kg, anti-mCD40 5 mg/kg) amounted to 23%; the “% TGI” value (Day 15, vs rat IgG2a control Group 1, Groups 9, 11, 13, 14: formula (I) 10 mg/kg p.o. bid×14 beginning Day 4 or anti-CSF1R 10 mg/kg i.p. Days 4, 8, 12, in combinations anti-mCD40 5 mg/kg i.p. Days 1, 5, 9) worked out at 38%. The “Median TTE” value (Groups 3-7: all dosing from Day 1 (antibodies i.p. Days 1, 5, 9, formula (I) p.o. bid×14), formula (I) and anti-CSF1R 10 mg/kg, anti-mCD40 5 mg/kg, 1500 mm^3 endpoint) was found to be 13.0 days; the “Median TTE” value (Groups 9, 11, 13, 14: formula (I) 10 mg/kg p.o. bid×14 beginning Day 4 or anti-CSF1R 10 mg/kg i.p. Days 4, 8, 12, in combinations anti-mCD40 5 mg/kg i.p. Days 1, 5, 9, 1500 mm^3 endpoint) is recorded as 13.9 days. The “% TGD” value is, setting by setting: under setting [1], 7%; under setting [2], 15%. Besides, the T-C reads like this: under setting [1], 0.9 days; under setting [2], 1.8 days.
